Paper PMC12155096 (International Journal of Molecular Sciences, 2025)
Counter-ions that a name gives are not always drawn. Like-named read-outs stand apart in the source and are kept apart here.

Experiments:
[1] = target: T1, human CYP2C19 (Homo sapiens, UniProt P33261); assay: biochemical
[2] = target: T2, human CYP2C9 (Homo sapiens, UniProt P11712); conditions: human
[3] = target: T3, human CYP1A2 (Homo sapiens, UniProt P05177); assay: biochemical
T3 sequence (P05177 1-516): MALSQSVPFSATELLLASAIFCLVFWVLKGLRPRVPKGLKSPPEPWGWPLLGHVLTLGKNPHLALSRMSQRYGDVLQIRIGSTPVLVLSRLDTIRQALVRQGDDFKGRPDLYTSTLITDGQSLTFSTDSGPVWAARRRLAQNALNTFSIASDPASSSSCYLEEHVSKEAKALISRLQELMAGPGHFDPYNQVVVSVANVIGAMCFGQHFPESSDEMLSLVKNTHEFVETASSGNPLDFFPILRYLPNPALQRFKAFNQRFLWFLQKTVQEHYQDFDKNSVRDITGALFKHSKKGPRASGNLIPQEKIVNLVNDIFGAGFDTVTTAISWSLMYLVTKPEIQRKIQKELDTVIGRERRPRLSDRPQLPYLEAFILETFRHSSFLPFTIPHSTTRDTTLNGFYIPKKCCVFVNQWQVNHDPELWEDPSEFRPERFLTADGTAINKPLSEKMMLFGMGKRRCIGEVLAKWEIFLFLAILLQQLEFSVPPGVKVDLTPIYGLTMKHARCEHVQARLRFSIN

[4] = target: T3, human CYP1A2; conditions: human
[5] = target: T4, human CYP2D6 (Homo sapiens, UniProt P10635); assay: biochemical; conditions: for AC50: CYP2D6 AC50 (half-maximal activity concentration)
[6] = target: T1, human CYP2C19; conditions: human
[7] = target: T4, human CYP2D6; conditions: human
[8] = target: T2, human CYP2C9; assay: biochemical
[9] = CYP2C19 IC50 (half-maximal inhibitory concentration)
[10] = CYP1A2 IC50 (half-maximal inhibitory concentration)
[11] = CYP2D6 IC50 (half-maximal inhibitory concentration)
[12] = CYP2C9 IC50 (half-maximal inhibitory concentration)
[13] = CYP2C19 AC50 (half-maximal activity concentration)
[14] = CYP1A2 AC50 (half-maximal activity concentration)
[15] = CYP2C9 AC50 (half-maximal activity concentration)

T4 sequence (P10635 whole entry): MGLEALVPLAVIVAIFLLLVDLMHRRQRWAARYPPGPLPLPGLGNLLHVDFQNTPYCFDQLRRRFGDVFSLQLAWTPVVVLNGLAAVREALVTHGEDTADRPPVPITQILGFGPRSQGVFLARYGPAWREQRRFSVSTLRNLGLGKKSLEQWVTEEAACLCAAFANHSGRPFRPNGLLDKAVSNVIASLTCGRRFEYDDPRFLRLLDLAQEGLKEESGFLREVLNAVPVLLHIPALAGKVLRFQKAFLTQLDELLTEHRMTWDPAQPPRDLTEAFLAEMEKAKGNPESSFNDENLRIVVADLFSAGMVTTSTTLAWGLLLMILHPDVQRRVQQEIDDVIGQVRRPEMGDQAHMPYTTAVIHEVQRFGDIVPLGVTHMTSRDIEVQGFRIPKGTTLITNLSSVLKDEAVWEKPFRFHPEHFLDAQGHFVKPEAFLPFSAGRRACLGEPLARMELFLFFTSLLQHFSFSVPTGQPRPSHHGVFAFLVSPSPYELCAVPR
T2 sequence (P11712 whole entry): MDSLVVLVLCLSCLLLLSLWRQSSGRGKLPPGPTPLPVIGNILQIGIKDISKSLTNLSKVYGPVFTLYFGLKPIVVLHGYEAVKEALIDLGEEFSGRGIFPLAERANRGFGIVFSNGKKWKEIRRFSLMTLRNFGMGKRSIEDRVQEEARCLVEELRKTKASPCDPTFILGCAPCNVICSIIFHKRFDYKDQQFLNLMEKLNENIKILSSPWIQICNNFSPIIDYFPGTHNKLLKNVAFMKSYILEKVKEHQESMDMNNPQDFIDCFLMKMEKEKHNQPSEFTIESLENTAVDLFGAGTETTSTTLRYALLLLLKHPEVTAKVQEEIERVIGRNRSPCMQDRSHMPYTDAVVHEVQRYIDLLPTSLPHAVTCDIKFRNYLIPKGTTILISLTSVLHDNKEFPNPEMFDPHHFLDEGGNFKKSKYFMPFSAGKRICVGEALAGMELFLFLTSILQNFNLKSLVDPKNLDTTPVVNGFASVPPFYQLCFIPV
T1 sequence (P33261 whole entry): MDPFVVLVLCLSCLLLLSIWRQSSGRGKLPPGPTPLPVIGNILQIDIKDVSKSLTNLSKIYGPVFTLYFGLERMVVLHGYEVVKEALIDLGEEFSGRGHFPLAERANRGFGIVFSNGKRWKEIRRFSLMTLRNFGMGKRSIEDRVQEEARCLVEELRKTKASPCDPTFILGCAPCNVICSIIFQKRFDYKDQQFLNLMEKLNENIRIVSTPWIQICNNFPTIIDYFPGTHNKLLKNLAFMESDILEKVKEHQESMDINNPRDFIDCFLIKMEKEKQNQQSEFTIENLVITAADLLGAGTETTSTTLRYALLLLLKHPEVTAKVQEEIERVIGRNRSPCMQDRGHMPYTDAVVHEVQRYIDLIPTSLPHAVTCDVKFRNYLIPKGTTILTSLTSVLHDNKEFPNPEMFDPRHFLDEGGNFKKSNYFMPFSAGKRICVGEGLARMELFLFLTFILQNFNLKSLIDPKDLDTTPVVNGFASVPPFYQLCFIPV

SMILES | IC50 [1, 9] | IC50 [3, 10] | IC50 [5, 11] | IC50 [8, 12] | IC50 [5] | IC50 [8] | also measured
O=S(=O)(c1ccc(Cl)cc1)c1ccc(Cl)cc1 [4,4'-Dichlorodiphenyl sulfone] | 0.34 µM | 36.2 µM | 40.6 µM | 31.4 µM |  |  | CYP2C9 Efficacy (in parenthesis) [2]: 31.35 ± 2.66 (-52 ± 4) %; CYP1A2 Efficacy (in parenthesis) [4]: 36.17 ± 4.16 (-44 ± 9) %; CYP2C19 Efficacy (in parenthesis) [6]: 0.34 ± 0.1 (-146 ± 11) %; CYP2D6 Efficacy (in parenthesis) [7]: 40.58 ± 4.66 (-51 ± 10) %
CCOC(=O)[C@H](CCc1ccccc1)N[C@H]1CCc2ccccc2N(CC(=O)O)C1=O [Benazepril] | 6.84 µM | 14 µM | 29.2 µM | 7.32 µM |  |  | 
CC(Cc1cccc(C(F)(F)F)c1)NCCOC(=O)c1ccccc1 (stereo not drawn) [Benfluorex hydrochloride] | 6.95 µM | 2.6 µM | 0.08 µM | 25.3 µM |  |  | 
c1ccc(-c2ccc(C(c3ccccc3)n3ccnc3)cc2)cc1 (stereo not drawn) [Bifonazole] | 0.47 µM | 5.3 µM | 1.82 µM | 0.25 µM |  |  | CYP2C9 Efficacy (in parenthesis) [2]: 0.25 ± 0.05 (-104 ± 3) %; CYP1A2 Efficacy (in parenthesis) [4]: 5.3 ± 0.35 (-105 ± 4) %; CYP2C19 Efficacy (in parenthesis) [6]: 0.47 ± 0.14 (-136 ± 18) %; CYP2D6 Efficacy (in parenthesis) [7]: 1.82 ± 0.33 (-107 ± 6) %
Clc1ccc(CCC(Cn2ccnc2)Sc2c(Cl)cccc2Cl)cc1 (stereo not drawn) [Butoconazole nitrate] | 0.04 µM | 16.1 µM | 2.37 µM | 0.1 µM |  |  | CYP2C9 Efficacy (in parenthesis) [2]: 0.1 ± 0.02 (-98 ± 4) %; CYP1A2 Efficacy (in parenthesis) [4]: 16.12 ± 1.09 (-93 ± 6) %; CYP2C19 Efficacy (in parenthesis) [6]: 0.04 ± 0.0 (-132 ± 17) %; CYP2D6 Efficacy (in parenthesis) [7]: 2.37 ± 0.15 (-100 ± 5) %
COc1ccc2c(c1OC)CN1CCc3cc4c(cc3[C@@H]1C2)OCO4 [Canadine] | 1.25 µM | 9.1 µM | 0.26 µM | 26.4 µM |  |  | 
CCOP(=S)(OCC)SCSc1ccc(Cl)cc1 [Carbophenothion] | 0.47 µM | 8.84 µM |  |  | 13.2 µM | 1.13 µM | CYP2C9 Efficacy (in parenthesis) [2]: 1.13 ± 0.13 (-94 ± 12) %; CYP1A2 Efficacy (in parenthesis) [4]: 8.84 ± 2.46 (-90 ± 2) %; CYP2C19 Efficacy (in parenthesis) [6]: 0.47 ± 0.18 (-138 ± 5) %; CYP2D6 Efficacy (in parenthesis) [7]: 13.25 ± 2.38 (-84 ± 7) %
COC(=O)c1c(Cl)c(Cl)c(C(=O)OC)c(Cl)c1Cl [Chlorthal-dimethyl] |  |  |  |  | 45 µM | 1.43 µM | AC50 [1]: 21.8 µM; IC50 [1]: 20.7 µM; AC50 [3]: 0.29 µM; IC50 [3]: 0.21 µM; CYP2D6 Efficacy (in parenthesis) ([7]; 1 h): 44.96 ± 16.37 (-48 ± 8) %; AC50 [8]: 1.46 µM
COCCOC(=O)C1=C(C)NC(C)=C(C(=O)OC/C=C/c2ccccc2)C1c1cccc([N+](=O)[O-])c1 (stereo not drawn) [Cilnidipine] | 1.75 µM | 15.6 µM | 29.2 µM | 0.21 µM |  |  | 
CC(C)(C)C(=O)C(Oc1ccc(Cl)cc1)n1ccnc1 (stereo not drawn) [Climbazole] | 1.56 µM | 16.1 µM | 28.7 µM | 3.23 µM |  |  | 
CCOP(=S)(OCC)Oc1ccc2c(C)c(Cl)c(=O)oc2c1 [Coumaphos] | 0.32 µM | 3.5 µM |  |  | 5.34 µM | 0.28 µM | CYP2C9 Efficacy (in parenthesis) [2]: 0.28 ± 0.02 (-103 ± 5) %; CYP1A2 Efficacy (in parenthesis) [4]: 3.5 ± 0.6 (-95 ± 2) %; CYP2C19 Efficacy (in parenthesis) [6]: 0.32 ± 0.04 (-144 ± 23) %; CYP2D6 Efficacy (in parenthesis) [7]: 5.34 ± 0.96 (-101 ± 7) %
CC[N+](CC)(CC(=O)Nc1c(C)cccc1C)Cc1ccccc1 [Denatonium benzoate] | 38.5 µM | 38.5 µM | 0.01 µM |  |  |  | CYP1A2 Efficacy (in parenthesis) [4]: 38.47 ± 2.51 (-59 ± 16) %; CYP2C19 Efficacy (in parenthesis) [6]: 38.47 ± 2.51 (-100 ± 4) %; CYP2D6 Efficacy (in parenthesis) [7]: 0.01 ± 0 (-107 ± 7) %
Clc1ccc(COC(Cn2ccnc2)c2ccc(Cl)cc2Cl)cc1 (stereo not drawn) [Econazole nitrate] | 0.15 µM | 1.18 µM | 0.4 µM |  |  |  | CYP1A2 Efficacy (in parenthesis) [4]: 1.18 ± 0.6 (-104 ± 2) %; CYP2C19 Efficacy (in parenthesis) [6]: 0.15 ± 0.02 (-152 ± 3) %; CYP2D6 Efficacy (in parenthesis) [7]: 0.4 ± 0.23 (-105 ± 10) %
O=C(OCC(O)CO)c1ccccc1Nc1ccnc2c(C(F)(F)F)cccc12 (stereo not drawn) [Floctafenine] |  |  |  |  | 23.6 ± 7.75 µM | 10.2 ± 0.69 µM | IC50 [1]: 0.35 µM; IC50 [3]: 2.91 ± 0.17 µM
CC(COc1ccccc1)NC(C)C(O)c1ccc(O)cc1 (stereo not drawn) [Isoxsuprine hydrochloride] | 7.99 µM | 16.1 µM | 0.55 µM | 14.9 µM |  |  | AC50 [1, 13]: 7.99 µM; AC50 [3, 14]: 16.1 µM; AC50 [5]: 0.55 µM; AC50 [8, 15]: 14.9 µM
COc1c2occc2c(OC)c2c(=O)cc(C)oc12 [Khellin] | 6.65 µM | 0.15 µM | 14.5 µM | 14.4 µM |  |  | 
CCOC(=O)C1=C(C)NC(C)=C(C(=O)OCC)C1c1ccccc1/C=C/C(=O)OC(C)(C)C [Lacidipine] | 6.72 µM | 23.9 µM | 15.7 µM | 1.29 µM |  |  | 

SMILES | IC50 [1, 9] | IC50 [3, 10] | IC50 [5, 11] | IC50 [8, 12] | IC50 [5] | IC50 [8] | also measured
N#C/C(=C1/SCC(c2ccccc2Cl)S1)n1ccnc1 (stereo not drawn) [Lanoconazole] |  |  |  |  | 2.58 ± 0.46 µM | 2.77 ± 0.32 µM | IC50 [1]: 0.12 ± 0.05 µM; IC50 [3]: 0.87 ± 0.1 µM; CYP2D6 Efficacy (in parenthesis) ([7]; 1 h): 2.58 ± 0.46 (-102 ± 1) %
Clc1cccc(C(c2ccc3[nH]cnc3c2)n2ccnc2)c1 (stereo not drawn) [Liarozole] |  |  |  |  | 31 ± 3.57 µM | 11.2 ± 2.55 µM | IC50 [1]: 7.61 ± 4.78 µM; IC50 [3]: 16.8 ± 1.09 µM; CYP2D6 Efficacy (in parenthesis) ([7]; 1 h): 31.04 ± 3.57 (-56 ± 13) %
CC1CCC(C(C)C)C(OC(=O)c2ccccc2N)C1 (stereo not drawn) [Menthyl anthranilate] |  |  |  |  |  |  | AC50 [1, 13]: 4.62 µM; AC50 [3, 14]: 16.6 µM; AC50 [5]: 57.9 µM; AC50 [8, 15]: 4.33 µM
COc1ccc(C(c2ccc(OC)cc2)C(Cl)(Cl)Cl)cc1 [Methoxychlor] | 0.86 µM | 17.8 µM | 35.5 µM | 2.45 µM |  |  | 
CCCCCOc1ccccc1/C(=C\SC)n1ccnc1 [Neticonazole] |  |  |  |  | 7.69 ± 5.3 µM | 7.76 ± 3.93 µM | IC50 [1]: 3.49 ± 2.23 µM; IC50 [3]: 4.51 ± 2.88 µM
CC(C)OC(=O)c1cc(C(=O)OC(C)C)cc([N+](=O)[O-])c1 [Nitrothal-isopropyl] |  |  |  |  | 6.51 µM | 1.06 µM | IC50 [1]: 0.52 µM; IC50 [3]: 2.34 µM
CCN(CC)Cc1nccn1-c1ccc([N+](=O)[O-])cc1C(=O)c1ccccc1Cl [Nizofenone] |  |  |  |  | 2.98 µM | 25.1 µM | IC50 [1]: 18.8 µM; IC50 [3]: 19.8 µM; CYP2D6 Efficacy (in parenthesis) ([7]; 1 h): 2.98 ± 0.19 (-103 ± 6) %
C/C(=C(/OCCOc1ccc(Cl)cc1)c1ccc(Cl)cc1Cl)n1ccnc1 [Omoconazole] |  |  |  |  | 1.67 ± 0.11 µM | 0.87 ± 0.1 µM | IC50 [1]: 0.92 ± 0.4 µM; IC50 [3]: 2.5 ± 0.24 µM
CCCCCC(C=O)=Cc1ccccc1 [Pentylcinnamaldehyde] |  |  |  |  |  |  | AC50 [1, 13]: 30.2 µM; AC50 [3, 14]: 29.1 µM; AC50 [5]: 49.4 µM; AC50 [8, 15]: 37 µM
COP(=S)(OC)SCN1C(=O)c2ccccc2C1=O [Phosmet] | 0.47 µM | 6.92 µM |  |  | 24.6 µM | 2.04 µM | 
CNC(=O)Oc1ccc2c(c1)[C@]1(C)CCN(C)[C@@H]1N2C [Physostigmine] | 45.4 µM | 55.4 µM | 0.59 µM | 80 µM |  |  | 
CCCCOCCOCCOCc1cc2c(cc1CCC)OCO2 [Piperonyl butoxide] | 0.5 µM | 1.03 µM | 6.78 µM | 0.65 µM |  |  | 
CC(=O)SCC(Cc1ccccc1)C(=O)NCC(=O)OCc1ccccc1 (stereo not drawn) [Racecadotril] | 0.64 µM | 15.1 µM | 1.24 µM | 3.34 µM |  |  | 
C[C@]12Cc3c[nH]nc3C[C@@H]1CC[C@@H]1[C@@H]2CC[C@@]2(C)[C@H]1CC[C@]2(C)O [Stanozolol] | 0.55 µM | 21.5 µM | 10.8 µM | 0.94 µM |  |  | 
CCCc1c(OCCCCc2nnn[nH]2)ccc(C(C)=O)c1O [Tomelukast] | 0.15 µM | 54.3 µM | 31.7 µM | 0.15 µM |  |  | 
CC(C)(C)C(O)C(Oc1ccc(Cl)cc1)n1cncn1 (stereo not drawn) [Triadimenol] | 1.38 µM | 33.6 µM | 65.1 µM | 34.4 µM |  |  | 
O[C@@H](COc1cccc2ncccc12)CN1CCN([C@@H]2c3ccccc3[C@@H]3[C@H](c4ccccc42)C3(F)F)CC1 [Zosuquidar trihydrochloride] | 20.4 µM | 15.5 µM | 15.2 µM | 9.14 µM |  |  | 
